Biological target: DNA-PK (Homo sapiens, UniProt P78527)
Experiment: SelectScreen Z'LYTE
Assay type: biochemical
Set-up: purchased Thermo Fisher Scientific (Life Technologies) SelectScreen
Conditions: ATP Km app
Description: The in vitro kinase selectivity of NU5455 was determined using the SelectScreen Broad Assay Panel (Thermo Fisher Scientific) involving activity and binding assays (Supplemental Table 1). […] Class IA PI3Ks were measured using the p85α subunit.
Kinase [ATP] % Assay Kinase [ATP] % Assay Kinase [ATP] % Assay Kinase [ATP] % Assay
DNA-PK Km app 98.3 Z LATS2 n/a 4.7 L KIT D820E n/a 1.3 L GSK3B (GSK3 beta) Km app -2.5 Z
PIK3C3 (hVPS34) Km app 85.9 A PRKCZ (PKC zeta) Km app 4.7 Z GRK1 n/a 1.3 L BMPR2 n/a -2.5 L
PIK3C2B (PI3K-C2 beta) 10 28.9 A FGFR1 Km app 4.7 Z BRSK2 n/a 1.2 L CDC42 BPB (MRCKB) Km app -2.5 Z
SNF1LK2 Km app 26.6 Z MINK1 Km app 4.6 Z NUAK1 (ARK5) Km app 1.2 A AMPK (A2/B2/G2) n/a -2.6 L
HCK Km app 18.0 Z CSF1R (FMS) Km app 4.3 Z CDK9/cyclin K n/a 1.0 L PRKG1 Km app -2.7 Z
NEK2 Km app 17.8 Z CSNK1G3 (CK1 gamma 3) Km app 4.2 Z NUAK2 n/a 1.0 L KIT T670E n/a -2.8 L
ALK Km app 17.3 Z STK32C (YANK3) n/a 4.2 L CDK2/cyclin O n/a 0.9 L ERBB4 (HER4) Km app -2.8 Z
FGFR3 K650M n/a 16.5 L STK22D (TSSK1) Km app 4.2 Z CAMKK2 (CaMKK beta) n/a 0.9 L PLK4 n/a -2.8 L
SIK3 n/a 16.1 L TAOK3 (JIK) n/a 4.2 L FGFR3 Km app 0.9 Z GRK7 Km app -3.0 Z
LYN A Km app 15.2 Z RPS6KA4 (MSK2) Km app 4.2 Z ULK2 n/a 0.9 L MAPKAPK2 Km app -3.1 Z
BMPR1B (ALK6) n/a 14.5 L PTK2B (FAK2) Km app 4.2 Z KIT D816V n/a 0.9 L FGFR4 Km app -3.1 Z
INSRR (IRR) Km app 14.1 Z CLK2 Km app 4.1 Z CAMK1 (CaMK1) 10 0.8 A CASK n/a -3.1 L […]

With CN(C(=O)CN1CCOCC1)c1ccc2sc3c(-c4cccc5c(=O)cc(N6CC7CCC(C6)O7)oc45)cccc3c2c1 [NU5455] the “% inhibition” value (1 µM) was 98% and the inhibition at 1 µM was 98.3%.
